Measurements reported in publication PMC1851987, “Identification of the Endogenous Key Substrates of the Human Organic Cation Transporter OCT2 and Their Implication in Function of Dopaminergic Neurons” (PLoS ONE, 2007).
Residue numbers refer to the chain shown, from its start. Marks after values point to notes of the source that are not given here.

Experiments:
OCT2 variant M165I = target: T1, OCT2 variant M165I (Homo sapiens, UniProt O15244, M165I/S270A); assay: Specific uptake into HEK-293 cells transfected with OCT2 variant M165I
T1 sequence (O15244 1-555 M165I/S270A): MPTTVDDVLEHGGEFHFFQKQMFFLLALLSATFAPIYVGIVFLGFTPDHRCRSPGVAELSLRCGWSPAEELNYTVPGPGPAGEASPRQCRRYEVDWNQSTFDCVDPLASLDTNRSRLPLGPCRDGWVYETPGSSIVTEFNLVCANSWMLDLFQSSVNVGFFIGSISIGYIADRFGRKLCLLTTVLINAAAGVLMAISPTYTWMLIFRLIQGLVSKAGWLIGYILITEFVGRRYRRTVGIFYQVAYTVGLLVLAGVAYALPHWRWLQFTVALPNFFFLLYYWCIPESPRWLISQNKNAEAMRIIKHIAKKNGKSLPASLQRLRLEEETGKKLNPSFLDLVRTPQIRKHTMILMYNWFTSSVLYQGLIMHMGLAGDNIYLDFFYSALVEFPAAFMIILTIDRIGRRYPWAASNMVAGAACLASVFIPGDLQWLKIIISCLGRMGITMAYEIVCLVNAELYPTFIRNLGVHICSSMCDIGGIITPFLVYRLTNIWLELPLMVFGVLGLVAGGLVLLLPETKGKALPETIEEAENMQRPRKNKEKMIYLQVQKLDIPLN
Procedure: (§1) The cDNAs encoding the organic cation transporters OCT1 (GenBank accession no. NM_003057), OCT2 (NM_003058), and EMT (NM_021977) were amplified by RT-PCR from human liver, kidney, and placenta total RNA respectively, and subcloned into the eukaryotic expression vector pcDNA3. The cDNA encoding the norepinephrine transporter (SLC6A2) was kindly provided by C. Pifl (University of Vienna).
(§2) For uptake experiments, cells were grown on polystyrene dishes of 60 mm diameter to at least 80% confluence. […] Cells were lysed with 1 ml of 4 mmol/l perchloric acid and lysates subjected to LC-MS-MS quantification. Cellular protein content was determined after solubilization of perchloric acid precipitates with 1 ml of […] NaOH using the bicinchoninic assay (BCA Protein Assay Kit, Pierce).
(§3) Chromatographic separations were performed on Hypercarb (5 µm, 50×2.1 mm; Thermo Electron), Aquasil C18 (3 µm, 100×4.6 mm; Thermo Electron), or Hilic columns (5 µm, 100×3.0 mm; Waters Atlantis) by isocratic or gradient elution using 0.1% aqueous formic acid (A) and acetonitrile or methanol (B) as solvent system. For quantification, SRM transitions of a precursor ion [M+H]^+ into a specific fragment ion (peak area ratios relative to IS) were recorded in positive ESI mode at 1.0–1.5 mTorr collision pressure and 10–40 eV collision energy. […]

OCT2 variant R400C = target: T2, OCT2 variant R400C (Homo sapiens, UniProt O15244, R400C/S270A); assay: Specific uptake into HEK-293 cells transfected with OCT2 variant R400C (mutant 400C); conditions: for Clin: incubation with 10 µmol/l
T2 sequence (O15244 1-555 S270A/R400C): T1 sequence (O15244 1-555 M165I/S270A) with I165M, R400C
Procedure: as §1
For uptake experiments, cells were grown on polystyrene dishes of 60 mm diameter to at least 80% confluence. Prior to addition of test compounds, culture medium was replaced by 3 ml HEPES-modified Krebs buffer (140.0 mmol/l NaCl, 5.0 mmol/l KCl, 2.0 mmol/l CaCl2, 1.0 mmol/l MgCl2, 10.0 mmol/l HEPES, and 5.0 mmol/l D-glucose, adjusted to pH 7.40), and cells were left to equilibrate for 60 min at 37°C. Uptake was terminated after indicated times by washing cells with ice-cold buffer. Cells were lysed with 1 ml of 4 mmol/l perchloric acid and lysates subjected to LC-MS-MS quantification. Cellular protein content was determined after solubilization of perchloric acid precipitates with 1 ml of […] NaOH using the bicinchoninic assay (BCA Protein Assay Kit, Pierce).
Chromatographic separations were performed on Hypercarb (5 µm, 50×2.1 mm; Thermo Electron), Aquasil C18 (3 µm, 100×4.6 mm; Thermo Electron), or Hilic columns (5 µm, 100×3.0 mm; Waters Atlantis) by isocratic or gradient elution using 0.1% aqueous formic acid (A) and acetonitrile or methanol (B) as solvent system. For quantification, SRM transitions of a precursor ion [M+H]^+ into a specific fragment ion (peak area ratios relative to IS) were recorded in positive ESI mode at 1.0–1.5 mTorr collision pressure and 10–40 eV collision energy. External calibration curves were obtained from serial dilutions of the analyte in 4 mmol/l HClO4 by linear or logistic regression. Detection limit was at least 0.001 nmol/mg protein.
Uptake versus time data were fitted by linear one-compartment kinetics: cin(t) = cin,∞·(1−e^−kex·t), where cin(t) represents intracellular free substrate concentration after time t (pmol/mg protein), cin,∞ extrapolated maximal intracellular free substrate concentration (pmol/mg protein), and kex efflux rate constant (1/min). Influx clearance was calculated as CLin = cin,∞/cex·kex (µl/mg protein/min), with cex extracellular free substrate concentration (pmol/µl). Statistical significance of differences between two treatments was evaluated by the unpaired two-tailed t-test or Mann-Whitney U-test, differences between more than two treatments by one-way ANOVA or Kruskal-Wallis test, as applicable. P<0.05 was considered statistically significant.

OCT2 variant A270S = target: T3, OCT2 variant A270S (Homo sapiens, UniProt O15244); assay: Specific uptake into HEK-293 cells transfected with OCT2 variant A270S
T3 sequence (O15244 1-555): T1 sequence (O15244 1-555 M165I/S270A) with I165M, A270S
Procedure: as §1, §2, §3

[1] = incubation with 10 µmol/l, mean (s.e.m.)

Clin (OCT2 variant M165I; [1]) | Vmax (OCT2 variant R400C; 1 min of loading, mean (s.e.m.), listed as CHP) | clearance (Clin) of 400C relative to the 400R reference (OCT2 variant R400C; 400C vs wild-type 400R) [%] | transport efficiency (Vmax/Km) of 400C relative to the 400R reference (OCT2 variant R400C; 400C vs wild-type 400R) [%] | Clin (OCT2 variant R400C; mean (s.e.m.)) | Clin (OCT2 variant R400C; mean (s.e.m.), listed as CHP) | Clin (OCT2 variant A270S; [1]) | SMILES | Km at 1 min (OCT2 variant M165I; human, pH 7.4) [µM] | Km at 1 min (OCT2 variant R400C; human, pH 7.4) [µM] | Km at 1 min (OCT2 variant A270S; human, pH 7.4) [µM]
 |  |  |  |  |  |  | CC1NCCc2cc(O)c(O)cc21 (stereo not shown) [salsolinol] | 127 | 123 | 132
24.8 (3.7) µl/mg/min | 1.0 (0.1) nmol/mg/min | 70 | 48 | 17.6 (1.5)^# µl/mg/min | 17.6 (1.5) µl/mg/min | 25.5 (3.3) µl/mg/min | O=C1NC(Cc2c[nH]cn2)C(=O)N2CCCC12 (stereo not shown) [cyclo(his-pro), histidyl-proline diketopiperazine] |  |  | 
